Data published in patent US12721823B2, “Methods and compositions for treatment of low circulating testosterone conditions” (University of Florida Research Foundation, Inc., priority 2021, dated 2026).

Experiments:
Type in all cases: in vivo, rat
[1] = test system: Sprague-Dawley rats; assay: Elevated plus maze (EPM)
Text: (§1) Sixty-four G1 rats (32 control and 32 sevoflurane exposed) and 122 G2 rats, which were not exposed to sevoflurane anesthesia and were subjected to animal facility rearing only, were studied. The G1 rats were sequentially evaluated in the EPM starting on ~P125, PPI of the acoustic startle response on ~P135 and MWM starting ~on P145 (FIG. 1). One half of these animals were sacrificed on ≥P160 to collect trunk blood, brain and testis and ovarian tissues for further analyses. The rest of these animals were physically restrained for 30 min on ≥P160 to measure corticosterone responses, followed by collection of tissue samples (as above) for further analyses. The G2 rats were evaluated in the EPM starting on P60 and PPI of startle on P70 (FIG. 1). One half of these animals were sacrificed on ≥P95 to collect trunk blood and brain tissue samples for further analyses, and the rest of these animals were tested for the corticosterone responses to physical restraint for 30 min on ≥P95 before collecting the trunk blood and brain tissue samples.
The EPM studies were performed using an EPM apparatus and BIO-EPM 3C video tracking software (EB Instruments, Pinellas Park, FL) during the light phase of the dark-light cycle as previously described by our laboratory.^5-7 If a fall occurred, the animal was removed from the study (one G1 male rat was removed from the study for this reason).

[2] = test system: Sprague-Dawley rats; assay: Prepulse inhibition (PPI) of startle; conditions: for startle amplitudes: all experimental groups; for PPI of startle at PP3: vs offspring of unexposed parents
Text: as §1
The PPI of startle tests were performed using a SR-Lab startle apparatus (San Diego Instruments, San Diego, CA) as previously described.^5-7 The % PPI for each prepulse level was calculated using the following formula: % PPI=100×[(pulse alone)−(prepulse+pulse)]/pulse alone. Data were collected as Vmax amplitude.

[3] = test system: Crh, Grs, Erα, Erβ, aromatase, Gnrh, Nkcc1 and Kcc2 mRNA; assay: qRT-PCR of mRNA levels in hypothalamus and hippocampus
Description: Levels of mRNA for Nkcc1 and Kcc2 in the hypothalamus and hippocampus, for Crh, Erα, Erβ, aromatase, GnRH in the hypothalamus, and for Grs in the hippocampus were analyzed via reverse transcription-PCR (qRT-PCR) in a StepOnePlus™ Real-Time PCR System (Applied Biosystems, Foster City, CA) as previously described. 5 RNA was extracted from the samples using an RNeasy Plus Kit (Qiagen, Valencia, CA), reverse transcribed with a high-capacity cDNA reverse transcription kit (Bio-Rad Laboratories, Hercules, CA), and then analyzed via qRT-PCR. Taqman probes specific for the above genes were obtained from Applied Biosystems (Carlsbad, CA): Crh (Rn01462137_m1), Gr (Rn00561369_m1), Erα (Rn01430446_m1), Erβ (Rn00562610_m1), aromatase (Rn00567222_m1), Gnrh (Rn00562754_m1), Nkcc1 (Rn00582505_m1) and Kcc2 (Rn00592624_m1). Data were normalized to glyceraldehyde-3-phosphate dehydrogenase (Gapdh) mRNA (Rn01775763_g1). Gene expression was calculated using the ΔΔCT method and data are presented as relative fold change from that of control animals.

[4] = G1 male rats, more than two months after exposure, vs control
[5] = G2 females, all groups of parental exposure
[6] = G2 male offspring of both exposed parents
[7] = G2 female rats, parental sevoflurane exposure
[8] = G1 female rats, control vs sevoflurane-exposed
[9] = G1 female rats, more than 3 months after exposure
[10] = G1 male rats, more than 3 months after exposure
[11] = G2 females, parental sevoflurane exposures
[12] = G2 males, all four treatment groups

Question: `FCOC(C(F)(F)F)C(F)(F)F` [sevoflurane, 1,1,1,3,3,3-hexafluoro-2-(fluoromethoxy)propane] was tested. Which “EPM parameters (time in open arms, number of crossings, distance traveled)” value ([1]; G1 female rats, vs control) did it give?
Answer: no significant between-subjects effect

Question: And the “distance traveled, EPM” value [1, 4]?
Answer: did not differ

Question: And the “number of crossings, EPM” value [1, 4]?
Answer: did not differ

Question: What about the “time spent in open arms, EPM” value [1, 4] of the same compound?
Answer: spent less time in open arms

Question: And the “distances traveled, EPM” value [1, 5]?
Answer: similar

Question: What about the “number of crossings, EPM” value [1, 5] of the same compound?
Answer: similar

Question: And the “time spent in open arms, EPM” value [1, 5]?
Answer: similar

Question: What about the “distance traveled, EPM” value [1, 6] of the same compound?
Answer: shorter distances

Question: And the “number of crossings, EPM” value [1, 6]?
Answer: fewer crossings

Question: And the “time spent in open arms, EPM” value ([1]; G2 male progeny of exposed fathers and exposed mothers, vs offspring of control parents)?
Answer: spent less time in open arms

Question: And the “time spent in open arms, EPM” value ([1]; G2 male progeny of sevoflurane exposed fathers and unexposed mothers, vs offspring of control parents)?
Answer: spent less time in open arms

Question: And the “time spent in open arms, EPM” value ([1]; G2 male progeny of unexposed fathers and exposed mothers, vs offspring of control parents)?
Answer: spent less time in open arms

Question: And the “PPI of startle responses” value ([2]; G1 male rats, prepulse intensity of 3 dB, vs control)?
Answer: impaired PPI of startle responses

Question: What about the startle amplitudes ([2]; G2 female rats) of the same compound?
Answer: similar

Question: What about the PPI of startle [2, 7] of the same compound?
Answer: no significant treatment effect

Question: And the startle amplitudes ([2]; G2 male rats)?
Answer: similar

Question: And the “PPI of startle at PP3” value ([2]; G2 males of both exposed parents)?
Answer: reduced PPI of startle

Question: And the “PPI of startle at PP3” value ([2]; G2 males of control fathers and exposed mothers)?
Answer: reduced PPI of startle

Question: What about the “hippocampal Kcc2 mRNA levels” value [3, 8] of the same compound?
Answer: similar

Question: And the “hippocampal Nkcc1 mRNA levels” value [3, 8]?
Answer: similar

Question: What about the “Kcc2 mRNA levels in the hypothalamus” value [3, 9] of the same compound?
Answer: unaltered

Question: And the “Nkcc1 mRNA levels in the hypothalamus” value [3, 9]?
Answer: unaltered

Question: And the “hippocampal Gr mRNA levels” value ([3]; G1 female rats, vs control)?
Answer: Neither hypothalamic Crh mRNA levels (FIG. 4C) nor hippocampal GrmRNA levels (FIG. 4D) were different

Question: And the “hypothalamic Crh mRNA levels” value ([3]; G1 female rats, vs control)?
Answer: Neither hypothalamic Crh mRNA levels (FIG. 4C) nor hippocampal GrmRNA levels (FIG. 4D) were different

Question: What about the “hypothalamic levels of Erα mRNA” value ([3]; G1 female rats, vs control) of the same compound?
Answer: not different

Question: And the “hypothalamic levels of Erβ mRNA” value ([3]; G1 female rats, vs control)?
Answer: slightly, though significantly increased

Question: What about the “hypothalamic levels of Gnrh mRNA” value ([3]; G1 female rats, vs control) of the same compound?
Answer: no significant treatment effects

Question: And the “increase in hypothalamic aromatase mRNA” value ([3]; G1 female rats, vs control)?
Answer: did not achieve statistical significance

Question: What about the “hypothalamic Crh mRNA levels” value ([3]; G1 male rats, 2 hours after the restraint, vs control) of the same compound?
Answer: increased

Question: What about the “Kcc2 mRNA levels in the hippocampus” value [3, 10] of the same compound?
Answer: significantly reduced

Question: What about the “Kcc2 mRNA levels in the hypothalamus” value [3, 10] of the same compound?
Answer: decreased

Question: What about the “Nkcc1 mRNA levels in the hippocampus” value [3, 10] of the same compound?
Answer: but not Nkcc1 mRNA levels

Question: And the “Nkcc1 mRNA levels in the hypothalamus” value [3, 10]?
Answer: normal

Question: What about the “Gr mRNA in the hippocampus” value ([3]; G1 male rats, vs control) of the same compound?
Answer: reduced

Question: What about the “hypothalamic levels of Era mRNA” value ([3]; G1 male rats, vs control) of the same compound?
Answer: increased

Question: And the “hypothalamic levels of Erβ mRNA” value ([3]; G1 male rats, vs control)?
Answer: decreased

Question: And the “hypothalamic levels of Gnrh mRNA” value ([3]; G1 male rats, vs control)?
Answer: increased

Question: What about the “hypothalamic levels of aromatase mRNA” value ([3]; G1 male rats, vs control) of the same compound?
Answer: significantly increased

Question: What about the “hippocampal Gr mRNA levels” value [3, 7] of the same compound?
Answer: no significant between-subjects effects

Question: What about the “hypothalamic Crh mRNA” value [3, 7] of the same compound?
Answer: no significant between-subjects effects

Question: And the “Kcc2 mRNA level in the hippocampus” value [3, 11]?
Answer: not significant

Question: What about the “Kcc2 mRNA levels in the hypothalamus” value [3, 11] of the same compound?
Answer: not significant

Question: And the “Nkcc1 mRNA level in the hippocampus” value [3, 11]?
Answer: not significant

Question: What about the “Nkcc1 mRNA levels in the hypothalamus” value [3, 11] of the same compound?
Answer: not significant

Question: And the “hippocampal Kcc2 mRNA levels” value [3, 6]?
Answer: reduced

Question: And the “hippocampal Kcc2 mRNA levels” value ([3]; G2 male offspring of exposed fathers and control mothers)?
Answer: reduced

Question: And the “hypothalamic Kcc2 mRNA levels” value ([3]; G2 male progeny of sevoflurane exposed fathers and mothers, vs offspring of control parents)?
Answer: lower levels

Question: And the “Crh mRNA in the hypothalamus” value [3, 12]?
Answer: not different

Question: What about the “Gr mRNA levels in the hippocampus” value [3, 12] of the same compound?
Answer: not different

Question: What about the “Nkcc1 mRNA levels in the hippocampus” value ([3]; G2 males, parental sevoflurane exposure) of the same compound?
Answer: no significant effects
